Measured values from US12398117B2, “Heteroarylamidopyridinol derivative and pharmaceutical composition comprising same as active ingredient for prevention or treatment of autoimmune disease” (INNOVO THERAPEUTICS INC., priority 2019, dated 2025).

Experiments:
[1] = tested on: adhesion of intestinal epithelial cells (HT-29) and monocytic cells (U937) induced by IL-6; assay: Inhibition of IL-6-induced adhesion of monocytes and intestinal epithelial cells; assay type: cell-based, human; conditions: Homo sapiens
Outline: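 HT-29 monolayers pretreated 1 h with test drug in 1% FBS medium, then co-incubated 3 h at 37 °C with BCECF-labeled U937 monocytes plus IL-6 (10 ng/mL). After removal of non-adherent cells, bound monocytes quantified by BCECF fluorescence of Triton X-100 lysates.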

[2] = tested on: DSS-induced acute enteritis mouse model; assay: Oral efficacy in DSS-induced acute enteritis mouse model; assay type: in vivo, C57BL/6 mice; conditions: for Body weight recovery rate (%) / Intestinal weight recovery rate (%): acute enteritis (DSS), mouse
Procedure: C57BL/6 mice aged 7-8 weeks were purchased from OrientBio (Korea), stabilized with general solid feed for 7 days, and then used in this experiment. Feed and water were freely supplied during the experiment period, and the temperature of the breeding room was maintained at 25±1° C. and the relative humidity at 50±10%. Lighting management was controlled in a 12-hour light-dark cycle by an automatic lighting controller.
Enteritis was induced in mice by allowing them to freely ingest drinking water containing 2% DSS salt (M.W. 36,000˜50,000, MP Biomedicals, LLC, OH, USA). For the chronic enteritis model, DSS was administered using a schedule of DSS administration for the first 7 days, administration of normal drinking water for 14 days, repeated administration of DSS for 7 days from the 21st day, and administration of normal drinking water for 7 days. The drug was administered once a day, 6 days a week from the first day of DSS treatment (FIG. 2A). […] In order to measure the dose-dependent therapeutic effect of the drug in the acute enteritis model, DSS was administered for 5 days to induce enteritis, and then the drug was administered for 14 days to measure the degree of recovery and treatment of enteritis (FIG. 3A). The drug was administered orally once daily for […] at a fixed time.
Changes in body weight of each mouse were observed during the DSS and drug administration using a digital mass meter.
The colon of the mouse was extracted, and the length and weight from the anus to the cecum were measured.
The degree of neutrophil infiltration in the tissue was measured by the amount of MPO, a neutrophil marker enzyme. The colon tissue with a size of 1 cm was washed with cold PBS and weighed, to which a lysis buffer (pH7.4, 200 mM NaCl, 5 mM EDTA, 10 mM tris, 10% glycerin, 1 mM PMSF, 1 μg/mL leupeptin and 28 μg/mL aprotinin) was added (500 μL of per 10 mg of tissue weight), and then homogenized using Bead Blaster® D2400 homogenizer (Benchmark Scientific, NJ, USA). […] (HK210, Hycult Biotechnology, Netherlands). The supernatant was added to a 96 well plate (100 μL/well) coated with an anti-mouse MPO antibody, and incubated for 1 hour at room temperature, followed by washing 3 times with a washing buffer. A reconstituted tracer was added to the plate (100 μL/well), which was reacted at room temperature for 1 hour, washed 3 times, and then 100 μL of streptavidin-peroxidase conjugate was added to each well of the plate. The plate was reacted at room temperature for 1 hour, washed, and 100 μl of TMB substrate solution was added to each well of the plate, followed by reaction for 30 minutes. The reaction was terminated by adding 100 μL of a stop solution to each well of the plate, and absorbance was measured at 450 nm. MPO activity means the amount of 1 μM […] at 25° C. for 1 minute. This was calculated as the amount of MPO contained in 1 mL of the colon tissue homogenate.
Tissue staining was performed in the same manner as in the case of hematoxylin/eosin staining of the rat colon tissue, and scoring indexes of mucosal damage and recovery were applied in the same way.

Question: Which results are given for `Cc1ccc2[nH]c(C(=O)Nc3nc(C)c(O)c(C)c3C)cc2c1` [Compound X-09, N-(5-hydroxy-3,4,6-trimethylpyridin-2-yl)-5-methyl-1H-indole-2-carboxamide]?
Answer: inhibition at 1 µM ([1]; 3 h, test drug 1 μM, IL-6 10 ng/mL, HT-29/U937, read-out: inhibitory activity (%)): 71.7%; IC50 ([1]; inhibition of adhesion by IL-6): 340 nM; Morphological observation of colon, therapeutic effect versus tofacitinib ([2]; DSS acute mouse, 10 mg/kg, FIG. 3C): significantly superior to that of the control group treated with 30 mg/kg of tofacitinib; Morphological observation of colon ([2]; DSS acute mouse, X-09 dose range, FIG. 3C): dose-dependent therapeutic efficacy; level of MPO in colon tissue ([2]; DSS acute mouse, X-09 dose range, FIG. 3E): decreased by compound X-09 dose-dependently; Mucosal damage recovery of mouse colon (hematoxylin-eosin score) ([2]; DSS mouse, X-09 dose range, FIG. 4): dose-dependent mucosal damage recovery effect; Body weight recovery rate (%) ([2]; 0.3 mg/kg): 56.5%; Intestinal weight recovery rate (%) ([2]; 0.3 mg/kg): 48.4%; Body weight recovery rate (%) ([2]; 1 mg/kg): 72.0%; Intestinal weight recovery rate (%) ([2]; 1 mg/kg): 76.7%; Body weight recovery rate (%) ([2]; 3 mg/kg): 80.7%; Intestinal weight recovery rate (%) ([2]; 3 mg/kg): 89.0%; Body weight recovery rate (%) ([2]; 10 mg/kg): 88.1%; Intestinal weight recovery rate (%) ([2]; 10 mg/kg): 96.4%
